Results from US20250351832A1, “PHYTOCHEMICALS AS BIOPESTICIDES AND BIOSTIMULANTS” (KAY BEE BIO ORGANICS PVT. LTD., priority 2024, published 2025).
Read-outs that look alike come from different tables or passages of the source.

Tests used:
Helicoverpa armigera [1] = settings: Helicoverpa armigera on okra fruits, dose 1 ml/gm/lit., 72 Hrs.
Helicoverpa armigera [2] = settings: Helicoverpa armigera 3rd instar on chickpea plants, dose 1 ml/gm/lit. spray
Mealy Bug [3] = test: In vitro bio-efficacy against mealy bug (Ex. 16); settings: in vivo
Alternaria alternata = test: In vitro poisoned food technique against fungus (Ex. 20); type: cell-based; settings: […]
Mite [4] = settings: mite on okra plants, green house; dose 1 ml/gm/lit. spray; 48 hrs after application
Mite [5] = test: Green house effect on mite, okra plants (Ex. 23); settings: in vivo
Spodoptera litura [6] = test: Controlled conditions, Spodoptera litura on cabbage plants (Ex. 26); settings: in vivo
tomato seedlings = test: Response of tomato plants, greenhouse growth (Ex. 30); type: in vivo
Thrips [7] = settings: 48 h, 1 mL or g/L
Aphid [8] = tested on: Aphid
[9] = cited from earlier work
Thrips [10] = test: Greenhouse effect on thrips, cotton plants (Ex. 27); settings: in vivo
Mite [11] = settings: Dose 1 ml/gm/lit.; 48 hrs
Aphid [12] = test: whole plant or invertebrate; settings: 48 h
Spodoptera litura [13] = test: whole plant or invertebrate; settings: 72 h
Aphid [14] = settings: 48 h, 1 mL or g/L
Thrips [15] = settings: 48 h
chili seedlings = test: Response of chili plants, greenhouse growth (Ex. 31); type: in vivo
Thrips [16] = test: whole plant or invertebrate; settings: in Gossypium hirsutum, 48 h
Spodoptera litura [17] = settings: Spodoptera litura 3rd instar on cabbage plants; dose 1 ml/gm/lit. spray; 72 hrs after application
Spodoptera litura [18] = settings: 72 h, 1 mL or g/L
Mealy Bug [19] = test: Green house effect on mealy bugs, cotton plants (Ex. 24); settings: in vivo
[20] = tomato seedlings, 10th day, dose 1 ml/gm/lit
[21] = Table 13, descriptive, no test described
[22] = read-out: % Corrected Mortality at 48 Hrs.
[23] = read-out: % Mortality at 48 Hrs.
[24] = chili seedlings, dose 1 ml/gm/lit, 10th day

C=C(C)[C@H]1CC=C(C)CC1 [D-limonene]
% Mortality at 72 Hrs. (Helicoverpa armigera [1]): 32.50% | % Corrected Mortality at 72 Hrs. (Helicoverpa armigera [1]; corrected for water control): 32.50% | % Mortality at 72 Hrs. (Helicoverpa armigera [2]; 72 hrs after application): 32.50% | % Corrected Mortality at 72 Hrs. (Helicoverpa armigera [2]; 72 hrs, corrected for water control): 32.50% | % Corrected Mortality at 48 Hrs. (Mealy Bug [3]): 39.47% | % Mortality at 48 Hrs. (Mealy Bug [3]): 42.50% | inhibition of growth at 1 mL or g/L (Alternaria alternata): 46.6% | % Mortality at 48 Hrs. (Mite [4]): 52.50% | % Corrected Mortality at 48 Hrs. (Mite [5]): 50.00% | % Corrected Mortality at 72 Hrs. (Spodoptera litura [6]): 23.68% | CCI Pre (tomato seedlings): 11.59 | Plant Height Pre (tomato seedlings): 5.52 cm | Stem Girth Pre (tomato seedlings): 1.30 mm | CCI 5th Day (tomato seedlings; 120 h): 13.66 | Plant Height 5th Day (tomato seedlings; 120 h): 6.44 cm | Stem Girth 5th Day (tomato seedlings; 120 h): 1.98 mm | CCI 10th Day (tomato seedlings; 240 h): 15.54 | Plant Height 10th Day (tomato seedlings; 240 h): 7.56 cm | Root Length % Increase over control (tomato seedlings; 240 h): 25.57% | Stem Girth 10th Day (tomato seedlings; 240 h): 2.21 mm | Plant Height % Increase over pre on 10th Day (tomato seedlings; [20]): 36.96% | Stem Girth % Increase over pre on 10th Day (tomato seedlings; [20]): 69.48% | CCI % Increase over pre on 10th Day (tomato seedlings; tomato seedlings, dose 1 ml/gm/lit, 10th day): 34.08% | Total No. of dead insect at 48 Hrs. (Thrips [7]): 3.75 | Total No. of dead insect at 48 Hrs. (Aphid [8]; 48 h): 6.25 | % Corrected Mortality at 48 Hrs. (Aphid [8]; Dose 1 ml/gm/lit., 48 hrs): 57.14% | Acaricidal Activity - Mode of action [9, 21]: Ovicidal, repellent activity | Antioxidant Activity - Mode of action [9, 21]: Possesses antioxidant | Virucidal Activity - Mode of action [9, 21]: Exhibits viricidal activities | Phytotonic Effect ([9]; Table 13, effect on plants, descriptive): Exhibits plant | % Corrected Mortality at 48 Hrs. (Thrips [10]): 30.56% | % Corrected Mortality at 48 Hrs. (Mite [11]): 45.95% | % Mortality at 48 Hrs. (Mite [11]): 50.00% | mortality at 1 mL or g/L (Aphid [12]; [22]): 55.9% | mortality at 1 mL or g/L (Aphid [12]; [23]): 62.5% | mortality at 1 mL or g/L (Spodoptera litura [13]; read-out: % Corrected Mortality at 72 Hrs.): 21.1% | mortality at 1 mL or g/L (Spodoptera litura [13]; read-out: % Mortality at 72 Hrs.): 25% | Total No. of dead insect at 48 Hrs. (Aphid [14]): 62.50 | Total No. of dead insect at 48 Hrs. (Thrips [15]): 37.50 | CCI Pre (chili seedlings): 10.30 | Plant Height (cm) Pre (chili seedlings): 4.90 cm | CCI 5th Day (chili seedlings; 120 h): 13.60 | Plant Height (cm) 5th Day (chili seedlings; 120 h): 6.97 cm | CCI 10th Day (chili seedlings; 240 h): 17.4 | Plant Height (cm) 10th Day (chili seedlings; 240 h): 8.24 cm | Root Lenght % Increase over control (chili seedlings; 240 h): 61.51% | CCI % Increase over pre on 10th Day (chili seedlings; [24]): 68.93% | Plant Height % Increase over pre on 10th Day (chili seedlings; [24]): 68.16% | Root Lenght (cm) 10th Day (chili seedlings; [24]): 4.42 cm | Stem Girth % Increase over pre on 10th Day (chili seedlings; [24]): 60.00% | mortality at 1 mL or g/L (Thrips [16]; [22]): 28.6% | mortality at 1 mL or g/L (Thrips [16]; [23]): 37.5% | % Mortality at 72 Hrs. (Spodoptera litura [17]): 27.50% | Total No. of dead insect at 72 Hrs. (Spodoptera litura [18]): 2.50 | % Corrected Mortality at 48 Hrs. (Mealy Bug [19]): 38.89% | % Mortality at 48 Hrs. (Mealy Bug [19]): 45.00%
